The test system of data set [1] is tissue noradrenaline and dopamine content. As to the kind of experiment: Tissue catecholamines in SHRs after three oral doses 12 h apart. Format: in vivo, spontaneously hypertensive rats. The following applies: for increase in DA/NE ratio: 30 mg/kg; for dopamine vs vehicle / dopamine/norepinephrine ratio vs vehicle / norepinephrine vs vehicle: 30 mg/kg x3. As for the experimental part:
Male SHRs (15-16 weeks old, Charles River, Wilmington, Mass., USA) were used in in vivo studies. On the day of the study, animals were weighed and randomly assigned to be dosed with either vehicle (control) or the appropriate dose of nepicastat (3, 10, 30 or 100 mg·kg^−1, po) or Compound B (30 mg·kg^−1, po) three consecutive times, twelve hours apart. At six hours after the third dose, the rats were anaesthetized with halothane, decapitated and tissues (cerebral cortex, mesenteric artery and left ventricle) were rapidly harvested, weighed, placed in iced perchloric acid (0.4 M), frozen in liquid nitrogen and stored at −70° C. until subsequent analysis. To quantify noradrenaline and dopamine concentrations, tissues were homogenized by brief sonication and centrifuged at 13,000 rpm for 30 minutes at 4° C. The supernatant, spiked with 3,4-dihydroxybenzylamine (internal standard), was assayed for noradrenaline and dopamine by HPLC using electrochemical detection.
Nepicastat was used in in vivo biochemical studies to study the effects in spontaneously hypertensive rats (SHRs) and normal beagle dogs. On the day of the study, the animals were weighed and randomly assigned to receive either placebo (vehicle) or the appropriate dose of nepicastat. Each rat was dosed orally three times, 12 h apart, beginning in the morning. At 6 h after the third dose, the rats were anesthetized with halothane, decapitated, and the tissues (cerebral cortex, mesenteric artery and left ventricle) were rapidly harvested, weighed, placed in iced 0.4 M perchloric acid, frozen in liquid nitrogen and stored at −70° C. until analysis. Tissue NE and DA concentrations were assayed by HPLC using electrochemical detection. Male beagle dogs (10-16 kg, Marshall Farms USA Inc, North Rose, N.Y.) were used in the study. On the day of the study, dogs were randomly assigned to receive either placebo (empty capsule) or the appropriate dose of nepicastat. Each dog was dosed twice a day for 4.5 days. 6 h after the first dose on day 5, the dogs were euthanized with pentobarbital and the tissues (cerebral cortex. renal artery, left ventricle) harvested, weighed, placed in iced 0.4 M perchloric acid, frozen in liquid nitrogen and stored at −70° C. until analysis. Tissue NE and DA concentrations were assayed by HPLC using electrochemical detection.
Fifteen to sixteen week old male spontaneously hypertensive rats (SHRs) (Charles River Labs) were allowed food and water ad libitum. Animals were weighed and randomly assigned to one of the following treatment groups: 1) distilled water vehicle (dH2O), or nepicastat at 3, 10, 30, and 100 mg/kg, 2) Compound B at 30 mg/kg in distilled water, or 3) PEG 400:dH2O vehicle or SKF-102698 at 30 mg/kg. Each rat was dosed orally (p.o., using a gavage needle) three times 12 hours apart, beginning in the morning. At six hours after the third dose rats were anesthetized with halothane, decapitated, and the cortex, mesenteric artery, and left ventricle were rapidly harvested, weighed, placed in iced 0.4 M perchioric acid, frozen in liquid nitrogen, and stored at −70° C. Tissue dopamine and norepinephrine concentrations were assayed by high performance liquid chromatography and electrochemical detection.
Four series of statistical analyses were performed. The first series compared the rats treated with various doses of nepicastat, and Compound B at 30 mg/kg to the vehicle control animals. A nonparametric one-way analysis of variance (ANOVA) with factor Dose and blocking factor Day was performed for each tissue and strain separately. […] Pairwise analysis between treated and controls at each dose were carried out using Dunnett's test to control the experiment-wise error rate. The second statistical test compared SKF-102698 to the PEG-dH2O vehicle treated group using a nonparametric t-test. The third statistical test compared Compound B to nepicastat at doses of 30 mg/kg using a nonparametric t-test.

In a further data set the test system is rats. As to the kind of experiment: Chronic (10 day) dosing behavioral tests in rats. The protocol:
The effects of chronic dosing of nepicastat in rats were examined. Between three and thirteen days prior to the first dosing day the rats were placed inside the startle apparatus and after a five minute acclimation period they were presented with a 118 dB noise burst on average once a minute (a variable inter-trial interval ranging between 30 and 90 seconds will be used) for 20 minutes. The startle responses were measured and a mean for the last twenty startle response was calculated for each rat.
The following behavioral tests were administered during and after chronic dosing; body core temperature, motor activity, acoustic startle reactivity, and pre-pulse inhibition of acoustic startle.
The animals were tested in an enclosed room with a white noise generator running Motor activity tests were conducted immediately after the body core temperature reading taken on dosing day ten (about 3 hours and 35 minutes after the morning daily dose of nepicastat, and SKF-102698, and 20 minutes prior to the daily administration of clonidine and d-amphetamine on dosing day ten). Motor activity tests were run for one hour. A diagnostic program was run on each of the motor activity chambers prior to each test session to assure that the photo beams and light sensors were operating properly. […] D-amphetamine was used as the positive control for this assay.
Rat body core temperatures were obtained by inserting the rectal probe 2 cm into the colon of each rat. Each rat's body core temperature was measured three times and the average of the three reading was calculated. Body core temperature readings were obtained immediately prior to the ten day chronic dosing schedule (to obtain a baseline), and three and half hour after the morning daily dose of nepicastat, and SKF-102698, and 15 minutes prior to the daily administration of clonidine and d-amphetamine, on dosing days one, five and ten. […] Both clonidine (an alpha2 agonist), and d-amphetamine (a dopamine releaser) were used as the positive controls for this assay.
Acoustic startle reactivity (a series of muscle contractions elicited by an intense burst of noise with a rapid onset), and pre-pulse inhibition (sensorimotor gating measured by analyzing any decrease in startle reactivity which occurs when a startling stimulus is immediately preceded by a non startling stimulus) were both measured in eight SR-Lab (San Diego Instruments, San Diego, Calif.) test stations. The rats were placed individually in a Plexiglas cylinder (10 cm diameter) which was housed in a ventilated sound-attenuating enclosure. Acoustic noise bursts (a broad band noise with a rise time and fall time of 1 msec) were presented via a speaker mounted 30 cm above the animal. Also, these speakers produced a 68 dB level of background noise throughout all test sessions. A piezoelectric accelerometer attached below the plexiglass cylinder transduced the subject's movement into a voltage which was then rectified and digitized (on a scale from 0 to 4095) by a PC computer equipped with SR-Lab software and interface assembly. A decibel meter was used to calibrate the speakers in each of the eight test station to ±1% of the mean. Additionally, a SR-Lab calibrating instrument was used to calibrate each of the eight startle detection apparatuses to ±2% of the mean. Startle reactivity and pre-pulse inhibition tests were run concurrently immediately alter the motor activity test (about 4 hours and 40 minutes after the morning daily injection of nepicastat, and SKF-102698, and 10 minutes after a supplemental administration of clonidine and d-amphetamine on dosing day ten).

Another data set has as its system SHRs. As to the kind of experiment: 30-day radio-telemetry study in SHRs.
In data set [2] the test system is short-term or working memory in rats. As to the kind of experiment: Delayed-matching-to-position (DMTP) test. The data set is classed as in vivo, Sprague Dawley rats. As for the experimental part: In the present DMTP study, rats were trained to remember the position of a lever across a scheduled delay of either 0, 8, 16 or 32 s in order to earn food reward. […] Another group of rats received only vehicle treatment throughout the experiment. […] The dependent measures in the present study included percentage of correct choices, the latency to make choice responses and the number of trials which the animals were able to complete during the 70 min test sessions. Changes in the former measure may indicate changes in memory and/or attentional function whereas changes in the latter two measures may be indicative of other non-cognitive effects of the drugs. Matching to position training began next. This and all subsequent training was conducted with the partitions fitted into the operant boxes. The sessions were initially 50 minutes long. Rats were placed in the operant box and the session began when the houselight was illuminated. Following a 30 s intertrial interval (ITI), one of the two levers (the sample lever) was inserted into the chamber. The lever remained inserted into the chamber until a lever-press response occurred. […] As soon as the magazine flap was pressed the magazine light was extinguished and both levers were inserted. […] The magazine light remained on until the flap was pressed. […] A 30 s ITI was initiated before the commencement of a new trial. The lever inserted as the sample lever was semi-randomly determined such that the right and lefthand levers were presented as the sample lever 8 times in a block of 16 trials. Following 24 sessions, the animals were performing the matching to position task with a high degree of accuracy. On Session 25 a variable delay interval was interposed between the depression of the sample lever and presentation of the levers on the choice trial. After a response to the sample lever, the choice levers were inserted following the first flap press occurring after either a 0 s (immediate), 4, 8 or 16 s delay. The order of the four types of trials (0, 4, 8 or 16 s delay) was semi-randomly determined with the constraint that in a 16 trial block, each delay occurred 4 times; twice on a left trial and twice on a right trial. […] The same trial was reinstated following the end of the ITI. From Session 25 onward the time-out period following incorrect choices was omitted and the session length was increased to 70 minutes. […] Due to poor performance at the 64 s delay, however, this delay was not used in any further sessions. On Session 59, delays of 0, 8, 16 and 32 s were used. These delays were used in all subsequent sessions. Only 51 of the 56 rats completed more than 24 trials (correction plus non-correction) during Session 59. These rats were selected and semi-randomly assigned to the following 7 groups such that the groups were matched on performance (percent correct, response latency and number of trials completed): […] Thus, the drug treatments administered to the seven groups during the 11 consecutive days of the present experiment were: The data collected and analyzed in the present DMTP study include 1) the percentage of correct responses; 2) the latency between performance of a response to the sample lever and the performance of the choice response and 3) the total number of correction and non-correction trials completed. The former two dependent measures were collected for the non-correction trials only. […] Two-way analysis of variance (ANOVA) with drug treatment as the between-subjects factor and delay (0, 8, 16 or 32 s) as the within-subjects factor was used to analyze percentage of correct choices and response latency. These analyses were conducted separately for each block of data. Significant interactions were followed by a one-way ANOVA which was conducted at each delay. A significant main effect from a one-way ANOVA was followed by a two-tailed Dunnett's t-test. One-way ANOVA followed by a post hoc Dunnett's test, when appropriate, was used to analyze the mean number of trials completed. […]

“Also recorded” adds a separate entry of the source.

With `NCc1c[nH]c(=S)n1[C@@H]1CCc2c(F)cc(F)cc2C1` [Compound B, (R)-5-Aminomethyl-1-(5,7-difluoro-1,2,3,4-tetrahydronaphth-2-yl)-2,3-dihydro-2-thioxo-1H-imidazole], in data set [1] (cerebral cortex), the “increase in DA/NE ratio” value amounted to 1.1 fold, the dopamine vs vehicle result is “significant increase”, the “dopamine/norepinephrine ratio vs vehicle” value is reported as “no effect” and the norepinephrine vs vehicle result is listed as “significant increase”. For the same molecule, in data set [1] (left ventricle), the “increase in DA/NE ratio” value was 3.5 fold, the dopamine vs vehicle result is listed as “significant increase”, the “dopamine/norepinephrine ratio vs vehicle” value was “significant increase” and the norepinephrine vs vehicle entry is “did not significantly lower”. For the same molecule, in data set [1] (mesenteric artery), the “increase in DA/NE ratio” value came out at 2.6 fold, the dopamine vs vehicle entry is recorded as “significant increase”, the “dopamine/norepinephrine ratio vs vehicle” value is recorded as “significant increase” and the norepinephrine vs vehicle entry is recorded as “did not significantly lower”.

Consider `C[C@H](N)Cc1ccccc1` [d-amphetamine], for which, in the data set on rats (10 days), the “change in body weight from pre-dose” value was “significantly smaller change in body weight”. In the data set with rats (dosing day ten), the pre-pulse inhibition result is recorded as “Neither d-amphetamine nor SKF-102698 was significantly different”. The “locomotor activity vs vehicle” value in the data set on rats (dosing day ten, nepicastat 5, 15, 50, SKF-102698 50 mg/kg bid, clonidine 20 μg/kg, d-amphetamine 2 mg/kg bid) is on record as “significantly higher locomotor activity”. Moreover, the body core temperature result in the data set with rats (dosing days one, five, ten) is recorded as “significantly increasing body core temperature on day one”.

As to `CCOC(=O)[C@H](CCc1ccccc1)N[C@@H](C)C(=O)N1CCC[C@H]1C(=O)O` [enalapril, reference compound], in the data set with SHRs (enalapril 1 mg/kg), the body weights result is given as “slightly decreased body weight”, the heart rate entry was “did not affect HR” and the left ventricular mass result was “did not regress the hypertrophy”. Also, in the data set with SHRs (enalapril 1 mg/kg or nepicastat 30 mg/kg (Series III)), the “antihypertensive effect of mono-administration” value was “failed to lower blood pressure; also recorded: only a small antihypertensive effect; also recorded: did not induce significant antihypertensive effects”. Also, in the data set on SHRs (enalapril 10 mg/kg), the “antihypertensive effect throughout the study” value is −20 to −30 mmHg; the body weights result is on record as “significantly decreased (p<0.05) or had no effect”; the heart rate result is recorded as “transient small tachycardia”; the left ventricular mass entry is listed as “significantly reduced left ventricular mass in Series II, but not in Series I”. Also, in the data set with SHRs (enalapril 10 mg/kg, within 1 hr after dosing on day 5), the “maximal decrease in MBP” value is recorded as −29 mmHg.

Turning to `CN1[C@@H]2C[C@@H](OC(=O)[C@H](CO)c3ccccc3)C[C@H]1[C@@H]1O[C@@H]12` [scopolamine, Scopolamine HBr, reference compound], the “number of trials completed” value in data set [2] (all scopolamine treated groups) was “significantly reduced”. The “percentage of correct choices vs Vehicle/Vehicle” value in data set [2] (scopolamine HBr 0.1 mg/kg s.c.) was “significantly impaired percentage of correct choices”.
